Tests used:
GFAP = GFAP expression in C6 glioma cells (immuno-fluorescent staining and RT-PCR), differentiation marker; format: cell-based, rat
Protocol: After the C6 glioma cells were incubated with 10 µg/mL NBM-HD-1 for 24 hours, they were fixed and analyzed by the traditional immuno-fluorescent staining method. Staining of glia was carried out by using glial-specific GFAP antibody (SIGMA) as the primary antibody and a fluorescence labeled rabbit immuno-globulin (SIGMA) as the secondary antibody to bind with the primary antibody. The cells which are GFAP-positive were excited by a specific light source to emit fluorescence. Also, the nuclei were stained with DAPI. […] In contrast with the control group, more GFAP proteins were detected in the photos of the cells being treated with 10 µg/mL of NBM-HD-1.
The GFAP mRNA expression was examined by RT-PCR.

HDAC = HDAC activity assay (fluorometric kit) on nuclear extracts of treated C6 glioma cells; format: cell-based, rat; conditions: C6 glioma cells treated 24 hours, nuclear extract, fluorescence (Fig. 6)
Protocol: The C6 glioma cells were treated with different doses of NBM-HD-1 and sodium butyrate (SB). After 24 hours, the cells were harvested to extract the nuclear proteins by NucBuster™ Protein Extraction Kit (Novagen) as described by the manufacturer's instructions. These extracts were then used in HDAC Activity Assay Kit (Calbiochem) to analyze their HDAC (histone deacetylase) inhibition activities. The HDAC fluorometric substrate, which comprises an acetylated lysine side chain, was incubated with extracted nuclear protein first. Deacetylation of the substrate sensitized the substrate, so that, in the second step, treatment with the Lysine Developer produced a fluorophore. The fluorophore can easily be analyzed by using a fluorescence plate reader. […] Inhibition of HDAC has been implicated in the induction of differentiation in cancer cells. In this experiment, a well-known compound for HDAC inhibition, sodium butyrate, was used as a positive control.

[1] = system: breast cancer MCF-7 cells; assay: Inhibition of growth and change of morphology of MCF-7 cells; format: cell-based, human
Protocol: The breast cancer MCF-7 cells, were cultured in Dulbecco's modified Eagle's medium (DMEM; Gibco) supplemented with penicillin G, streptomycin sulphate, 0.5 mM of L-glutamine and 10% fetal bovine serum (FBS; Gibco) at 37 °C, 5% CO2 and 95% relative humidity. The cells were seeded at a density of 3×10^5 per well of 6-well plates. After 24 hours, the cells were treated with different concentrations of compound NBM-HD-1 and 4mM sodium butyrate being used as the positive control. The cells were observed after 48 hours and counted after 96 hours. […] In Fig. 8(A), after the cells were incubated with 2.5 µg/mL (Fig. 8(A)-b), 5 µg/mL (Fig. 8(A)-c) and 10 µg/mL (Fig. 8(A)-d) of NBM-HD-1 for 48 hours, the density of MCF-7 cells reduced dramatically in comparison with that of the control group (Fig. 8(A)-a). The morphology of the MCF-7 cells in the experimental group changed in comparison with that in the control group. […] The results of the cell counting (FIG. 8(B)) indicate that, similar to sodium butyrate, NBM-HD-1 inhibits cell growth.
MCF-7 cancer cells were seeded at a density of 3×10^5 per well in 6-well plates. After 24 hours, the cells were treated with different concentrations of compound NBM-HD-2 and 4mM sodium butyrate being used as the positive control. The cells were observed and counted after 72 hours. […] In Fig. 13(A), after the cells were incubated with 2.5 µg/mL (Fig. 13(A)-c), 5 µg/mL (Fig. 13(A)-d), 7.5 µg/mL (Fig. 13(A)-e) and 10 µg/mL (Fig. 13(A)-f) of NBM-HD-2 for 72 hours, the density of MCF-7 cells reduced dramatically in comparison with that of the control group (Fig. 13(A)-a). The morphology of the MCF-7 cells in the experimental group changed in comparison with that in the control group.
MCF-7 cancer cells were seeded at a density of 3×10^5 per well of 6-well plates. After 24 hours, the cells were treated with different concentrations of compound NBM-HD-3 and 4mM sodium butyrate, which was being used as the positive control. The cells were observed and counted after 72 hours. […] In Fig. 14(A), after the cells were incubated with 2.5 µg/mL (Fig. 14(A)-c), 5 µg/mL (Fig. 14(A)-d), 7.5 µg/mL (Fig. 14(A)-e) and 10 µg/mL (Fig. 14(A)-f) of NBM-HD-3 for 72 hours, the density of MCF-7 cells reduced dramatically in comparison with that of the control group (Fig. 14(A)-a). The morphology of the MCF-7 cells in the experimental group changed in comparison with that in the control group. […] The results of the cell counting (FIG. 14(B)) indicate that, similar to sodium butyrate, NBM-HD-3 inhibits cell growth.

cortical neurons = assay: Neurite outgrowth of cortical neurons cultivated from fetal rat neural stem cells; format: cell-based, Wistar rat; conditions: 0.63 µg/mL
Protocol: The growth medium for the NSCs (neural stem cells) and cortical neurons was prepared by adding penicillin G, streptomycin and 0.5 mM of L-glutamine into a B-27 supplemented neurobasal medium (Gibco). The unborn fetus was taken out of the fetal sac in the abdominal cavity of a 17-day pregnant Wistar rat under anesthesia. The cerebral tissue was removed from the fetus and treated with 0.1 % trypsin solution at 25 °C for three minutes. After washing with PBS solution 3 times, the cells were dissociated by up and down mixing. The resulting solution was passed through a 70µm Nylon cell strainer (Falcon) in order to obtain the filtrate that contained cerebral cells. The filtrate was centrifuged at 1000 rpm for 10 minutes and the supernatant was aspirated. The resulting pellet was resuspended in the growth medium prepared as stated above. The resulting suspension contained NSCs.
The cells obtained from the suspension were cultivated in 6-well plates coated with 30 µg/ml of poly-D-lysine (Sigma) at the density of 75 cells/mm^2. The cells were cultured at 37 °C, 5% CO2 and 95% relative humidity. The growth media contained 0.63 µg/mL of NBM-HD-1 and the growth media with 1 µl of DMSO was used as the control. […]
After cultivation for 6 days, live cells were observed by microscope. The lengths of the neurites of the neurons in 6 different fields were measured and averaged. […]

Question: For `COc1cc2c(c(OC)c1CCC(C)(C)O)C(=O)C[C@@H](c1ccc(OC)c(OC)c1C/C=C(\C)CCCC(C)(C)O)O2` [NBM-HD-1], which “GFAP expression (immuno-fluorescent staining)” value (GFAP; 10 µg/mL, 24 hours (Fig. 4(A))) is on record?
Answer: can induce the GFAP expression of C6 glioma cancer cells

Question: What about the “GFAP mRNA expression” value (GFAP; RT-PCR (Fig. 4(B))) of the same molecule?
Answer: increased in a dose-dependent manner

Question: And the HDAC activity (HDAC)?
Answer: significantly inhibits HDAC activity

Question: What about the “morphology of MCF-7 cells” value ([1]; 2.5, 5 and 10 µg/mL, 48 hours (Fig. 8(A))) of the same molecule?
Answer: change their morphology

Question: What about the “growth of MCF-7 cancer cells” value ([1]; NBM-HD-1 2.5, 5 and 10 µg/mL, sodium butyrate 4mM, observed after 48 hours, counted after 96 hours (Fig. 8)) of the same molecule?
Answer: can inhibit the growth of MCF-7 cancer cells in a dose-dependent manner

Question: And the “average length of the neurites” value (cortical neurons; 6 days, 6 different fields, versus DMSO control (Fig. 12(B)))?
Answer: greater than that of the control group

Question: And the neurite outgrowth (cortical neurons; cultivation for 6 days (Fig. 12))?
Answer: could promote the neurite outgrowth
